System: human cervix cancer cells Hela
Assay: Plk Cell Proliferation Inhibition Assay (CCK8, 72 hours)
Assay type: cell-based
Settings: Hela cells highly expressing Plk
Description: The following in vitro assay is to determine the activity of the compounds of the present invention for inhibiting the proliferation of human cervix cancer cells Hela, which has high expression of Plk.
The in vitro cellular assay described here is to determine the activity of the tested compounds for inhibiting the proliferation of cancer cells, which has high expression of Plk. The activity is represented by the […]. The general procedures for the assay are given as follows: The Hela cells highly expressing Plk (Institute of biochemistry and cell biology) were seeded to 96-well cell culture plate at a suitable concentration (exp 3000 cells/ml medium). The cells then were cultured in carbon dioxide (CO2) incubator and grew overnight. Then, the cell culture medium was replaced by fresh one with tested compounds added in it at serial concentrations (general 7 to 9 concentrations). Then the cells were put back to the incubator and cultured for continuous 72 hours. 72 hours later, the activity of the tested compounds for inhibiting the cell proliferation was determined by using CCK8 (cell counting kit-8, Dojindo, NO:CK04) method. IC50 value on tested cells were calculated by the data of inhibition rates of serial concentrations of the tested compounds.

| IC50 [nM] | SMILES |
| --- | --- |
| 2 | CC[C@@H]1C(=O)N(C)c2cnc(Nc3ccc(C(=O)N[C@H]4C[C@@H]5CN(C)C[C@@H]5C4)c4c3OCC4)nc2N1C(C)C [Example 24, (cis-endo)-N-[2-Methyl-3,3a,4,5,6,6a-hexahydro-1H-cyclopenta[c]pyrrol-5-yl]-7-[[(7R)-7-ethyl-8-isopropyl-5-methyl-6-oxo-7H-pteridin-2-yl]amino]-2,3-dihydrobenzofuran-4-carboxamide] |
| 1 | CC[C@@H]1C(=O)N(C)c2cnc(Nc3ccc(C(=O)NC[C@H]4CN5CCC[C@@H]5CO4)c4c3OCC4)nc2N1C1CCCC1 [Example 27, N-[[(3S,8aR)-3,4,6,7,8,8a-Hexahydro-1H-pyrrolo[2,1-c][1,4]oxazin-3-yl]methyl]-7-[[(7R)-8-cyclopentyl-7-ethyl-5-methyl-6-oxo-7H-pteridin-2-yl]amino]-2,3-dihydrobenzofuran-4-carboxamide] |
| 3 | CC[C@@H]1C(=O)N(C)c2cnc(Nc3ccc(C(=O)NC[C@@H]4CN(C)CCO4)c4c3OCC4)nc2N1C1CCCC1 [Example 15, 7-[[(7R)-8-Cyclopentyl-7-ethyl-5-methyl-6-oxo-7H-pteridin-2-yl]amino]-N-[[(2R)-4-methylmorpholin-2-yl]methyl]-2,3-dihydrobenzofuran-4-carboxamide] |
| 10 | CC[C@@H]1C(=O)N(C)c2cnc(Nc3ccc(C(=O)N[C@H]4CC[C@H](N5CCN(C)CC5)CC4)c4c3OC(C)(C)C4)nc2N1C1CCCC1 [Example 17, 7-[[(7R)-8-Cyclopentyl-7-ethyl-5-methyl-6-oxo-7H-pteridin-2-yl]amino]-2,2-dimethyl-N-[(trans)-4-(4-methylpiperazin-1-yl)cyclohexyl]-3H-benzofuran-4-carboxamide] |
| 30 | CC[C@@H]1C(=O)N(C)c2cnc(Nc3ccc(C(=O)N[C@H]4CC[C@H](N5CCN(CC6CC6)CC5)CC4)c4c3OC(C)(C)C4)nc2N1C1CCCC1 [Example 16, 7-[[(7R)-8-Cyclopentyl-7-ethyl-5-methyl-6-oxo-7H-pteridin-2-yl]amino]-N-[(trans)-4-[4-(cyclopropylmethyl)piperazin-1-yl]cyclohexyl]-2,2-dimethyl-3H-benzofuran-4-carboxamide] |
| 7 | CC[C@@H]1C(=O)N(C)c2cnc(Nc3ccc(C(=O)NC[C@H](O)CN4CCN(C)CC4)c4c3OC(C)(C)C4)nc2N1C1CCCC1 [Example 21, 7-[[(7R)-8-Cyclopentyl-7-ethyl-5-methyl-6-oxo-7H-pteridin-2-yl]amino]-N-[(2S)-3-(4-methylpiperazin-1-yl)-2-hydroxy-propyl]-2,2-dimethyl-3H-benzofuran-4-carboxamide] |
| 5 | CC[C@@H]1C(=O)N(C)c2cnc(Nc3ccc(C(=O)N[C@H]4CC[C@@H](N5CCN(CC6CC6)CC5)CC4)c4c3OCC4)nc2N1C(C)C [Example 44, N-[(cis)-4-[4-(Cyclopropylmethyl)piperazin-1-yl]cyclohexyl]-7-[[(7R)-7-ethyl-8-isopropyl-5-methyl-6-oxo-7H-pteridin-2-yl]amino]-2,3-dihydrobenzofuran-4-carboxamide] |
| 3 | CC[C@@H]1C(=O)N(C)c2cnc(Nc3ccc(C(=O)NC[C@@H](O)CN4CCN(C)CC4)c4c3OCC4)nc2N1C1CCCC1 [Example 25, 7-[[(7R)-8-Cyclopentyl-7-ethyl-5-methyl-6-oxo-7H-pteridin-2-yl]amino]-N-[(2R)-2-hydroxy-3-(4-methylpiperazin-1-yl)propyl]-2,3-dihydrobenzofuran-4-carboxamide] |
| 2 | CC[C@@H]1C(=O)N(C)c2cnc(Nc3ccc(C(=O)NC4CCN(C)CC4)c4c3OC(C)(C)C4)nc2N1C1CCCC1 [Example 4, 7-[[(7R)-8-Cyclopentyl-7-ethyl-5-methyl-6-oxo-7H-pteridin-2-yl]amino]-2,2-dimethyl-N-(1-methyl-4-piperidyl)-3H-benzofuran-4-carboxamide] |
| 1 | CC[C@@H]1C(=O)N(C)c2cnc(Nc3ccc(C(=O)N[C@H]4C[C@@H]5CN(CC6CC6)C[C@@H]5C4)c4c3OCC4)nc2N1C1CCCC1 [Example 13, (cis-endo)-N-[2-(Cyclopropylmethyl)-3,3a,4,5,6,6a-hexahydro-1H-cyclopenta[c]pyrrol-5-yl]-7-[[(7R)-8-cyclopentyl-7-ethyl-5-methyl-6-oxo-7H-pteridin-2-yl]amino]-2,3-dihydrobenzofuran-4-carboxamide] |
| 8 | CC[C@@H]1C(=O)N(C)c2cnc(Nc3ccc(C(=O)NCC4CN(C)CCO4)c4c3OCC4)nc2N1C1CCCC1 (stereo partly drawn) [Example 2, 7-[[(7R)-8-cyclopentyl-7-ethyl-5-methyl-6-oxo-7H-pteridin-2-yl]amino]-N-[(4-methylmorpholin-2-yl)methyl]-2,3-dihydrobenzofuran-4-carboxamide] |
| 9 | CC[C@@H]1C(=O)N(C)c2cnc(Nc3ccc(C(=O)NC[C@H](O)CN4CCN(C)CC4)c4c3OCC4)nc2N1C(C)C [Example 32, 7-[[(7R)-7-Ethyl-8-isopropyl-5-methyl-6-oxo-7H-pteridin-2-yl]amino]-N-[(2S)-2-hydroxy-3-(4-methylpiperazin-1-yl)propyl]-2,3-dihydrobenzofuran-4-carboxamide] |
| 1 | CC[C@@H]1C(=O)N(C)c2cnc(Nc3ccc(C(=O)N[C@@H]4C[C@H]5CCN(C)C[C@H]5C4)c4c3OCC4)nc2N1C1CCCC1 [Example 14, (cis-endo)-N-[2-Methyl-1,3,3a,4,5,6,7,7a-octahydrocyclopenta[c]pyridin-6-yl]-7-[[(7R)-8-cyclopentyl-7-ethyl-5-methyl-6-oxo-7H-pteridin-2-yl]amino]-2,3-dihydrobenzofuran-4-carboxamide] |
| 2 | CC[C@@H]1C(=O)N(C)c2cnc(Nc3ccc(C(=O)NC4CCN(C)CC4)c4c3OC(COC)C4)nc2N1C1CCCC1 (stereo partly drawn) [Example 40, 7-[[(7R)-8-Cyclopentyl-7-ethyl-5-methyl-6-oxo-7H-pteridin-2-yl]amino]-2-(methoxymethyl)-N-(1-methyl-4-piperidyl)-2,3-dihydrobenzofuran-4-carboxamide] |
| 3 | CC[C@@H]1C(=O)N(C)c2cnc(Nc3ccc(C(=O)NC[C@H]4CN5CCC[C@H]5CO4)c4c3OCC4)nc2N1C1CCCC1 [Example 26, N-[[(3S,8aS)-3,4,6,7,8,8a-Hexahydro-1H-pyrrolo[2,1-c][1,4]oxazin-3-yl]methyl]-7-[[(7R)-8-cyclopentyl-7-ethyl-5-methyl-6-oxo-7H-pteridin-2-yl]amino]-2,3-dihydrobenzofuran-4-carboxamide] |
| 2 | CC[C@@H]1C(=O)N(C)c2cnc(Nc3ccc(C(=O)N[C@@H]4C[C@@H]5CN(C)C[C@@H]5C4)c4c3OC(C)(C)C4)nc2N1C1CCCC1 [Example 6, (cis-exo)-N-[2-Methyl-3,3a,4,5,6,6a-hexahydro-1H-cyclopenta[c]pyrrol-5-yl]-7-[[(7R)-8-cyclopentyl-7-ethyl-5-methyl-6-oxo-7H-pteridin-2-yl]amino]-2,2-dimethyl-3H-benzofuran-4-carboxamide] |
| 4 | CC[C@@H]1C(=O)N(C)c2cnc(Nc3ccc(C(=O)NC4CCN(C)CC4)c4c3OC(C)C4)nc2N1C1CCCC1 (stereo partly drawn) [Example 30, 7-[[(7R)-8-Cyclopentyl-7-ethyl-5-methyl-6-oxo-7H-pteridin-2-yl]amino]-2-methyl-N-(1-methyl-4-piperidyl)-2,3-dihydrobenzofuran-4-carboxamide] |
| 30 | CC[C@@H]1C(=O)N(C)c2cnc(Nc3ccc(C(=O)NC4CCN(C)CC4)c4c3OC(CN(C)C)C4)nc2N1C1CCCC1 (stereo partly drawn) [Example 29, 7-[[(7R)-8-Cyclopentyl-7-ethyl-5-methyl-6-oxo-7H-pteridin-2-yl]amino]-2-(dimethylaminomethyl)-N-(1-methyl-4-piperidyl)-2,3-dihydrobenzofuran-4-carboxamide] |
| 8 | CC[C@@H]1C(=O)N(C)c2cnc(Nc3ccc(C(=O)NC[C@@H](O)CN4CCN(C)CC4)c4c3OC(C)(C)C4)nc2N1C1CCCC1 [Example 20, 7-[[(7R)-8-Cyclopentyl-7-ethyl-5-methyl-6-oxo-7H-pteridin-2-yl]amino]-N-[(2R)-3-(4-methylpiperazin-1-yl)-2-hydroxy-propyl]-2,2-dimethyl-3H-benzofuran-4-carboxamide] |
| 2 | CC[C@@H]1C(=O)N(C)c2cnc(Nc3ccc(C(=O)N[C@H]4C[C@@H]5CN(C)C[C@@H]5C4)c4c3OC(C)(C)C4)nc2N1C1CCCC1 [Example 9, (cis-endo)-N-[2-Methyl-3,3α,4,5,6,6α-hexahydro-1H-cyclopenta[c]pyrrol-5-yl]-7-[[(7R)-8-cyclopentyl-7-ethyl-5-methyl-6-oxo-7H-pteridin-2-yl]amino]-2,2-dimethyl-3H-benzofuran-4-carboxamide] |
| 3 | CC[C@@H]1C(=O)N(C)c2cnc(Nc3ccc(C(=O)NC[C@@H]4CN5CCC[C@@H]5CO4)c4c3OCC4)nc2N1C1CCCC1 [Example 28, N-[[(3R,8aR)-3,4,6,7,8,8a-Hexahydro-1H-pyrrolo[2,1-c][1,4]oxazin-3-yl]methyl]-7-[[(7R)-8-cyclopentyl-7-ethyl-5-methyl-6-oxo-7H-pteridin-2-yl]amino]-2,3-dihydrobenzofuran-4-carboxamide] |

| SMILES | IC50 [nM] |
| --- | --- |
| CC[C@@H]1C(=O)N(C)c2cnc(Nc3ccc(C(=O)N[C@@H]4C[C@@H](OC(C)=O)[C@H](N(C)C)C[C@H]4OC(C)=O)c4c3OCC4)nc2N1C1CCCC1 [Example 3, [(1R,2R,4R,5R)-4-Acetoxy-2-[[7-[[(7R)-8-cyclopentyl-7-ethyl-5-methyl-6-oxo-7H-pteridin-2-yl]amino]-2,3-dihydrobenzofuran-4-carbonyl]amino]-5-dimethylamino-cyclohexyl]acetate] | 7 |

Reference: US8691822B2, “Dihydropteridinone derivatives, preparation process and pharmaceutical use thereof” (Jiangsu Hengrui Medicine Co., Ltd., priority 2009, dated 2014)
